Results reported in ChEMBL document CHEMBL1201862, “PubChem BioAssay data set” (2004).
Activity calls are given as the source filed them.

What was measured:
[1] = biological target: Peroxisome proliferator-activated receptor gamma/Nuclear receptor coactivator 1 (Homo sapiens, UniProt P37231); test: (§1) TR-FRET dose response biochemical High Throughput Screening assay for agonists of the steroid receptor coactivator 1 (SRC-1) recruitment by the peroxisome proliferator-activated receptor gamma (PPAR gamma): non-selective agonists. [Related pubchem assays (depositor defined):AID1300, AID1808, AID504735, AID631]; format: protein assay
Peroxisome proliferator-activated receptor gamma/Nuclear receptor coactivator 1, sequence (P37231 whole entry): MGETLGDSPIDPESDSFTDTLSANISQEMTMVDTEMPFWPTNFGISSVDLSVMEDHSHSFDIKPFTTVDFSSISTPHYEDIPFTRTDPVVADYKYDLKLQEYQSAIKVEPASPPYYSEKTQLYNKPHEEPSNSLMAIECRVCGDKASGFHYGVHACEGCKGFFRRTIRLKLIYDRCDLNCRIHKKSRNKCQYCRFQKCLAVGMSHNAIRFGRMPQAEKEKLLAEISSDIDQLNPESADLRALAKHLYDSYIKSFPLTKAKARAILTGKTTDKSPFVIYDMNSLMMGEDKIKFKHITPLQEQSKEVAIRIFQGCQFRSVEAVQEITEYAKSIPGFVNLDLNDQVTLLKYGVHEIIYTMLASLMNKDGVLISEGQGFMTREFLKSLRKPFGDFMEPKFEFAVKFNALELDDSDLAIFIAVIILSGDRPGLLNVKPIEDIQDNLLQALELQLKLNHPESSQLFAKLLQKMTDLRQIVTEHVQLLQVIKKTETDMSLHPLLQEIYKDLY
Peroxisome proliferator-activated receptor gamma/Nuclear receptor coactivator 1, sequence (Q15788 whole entry, further chain): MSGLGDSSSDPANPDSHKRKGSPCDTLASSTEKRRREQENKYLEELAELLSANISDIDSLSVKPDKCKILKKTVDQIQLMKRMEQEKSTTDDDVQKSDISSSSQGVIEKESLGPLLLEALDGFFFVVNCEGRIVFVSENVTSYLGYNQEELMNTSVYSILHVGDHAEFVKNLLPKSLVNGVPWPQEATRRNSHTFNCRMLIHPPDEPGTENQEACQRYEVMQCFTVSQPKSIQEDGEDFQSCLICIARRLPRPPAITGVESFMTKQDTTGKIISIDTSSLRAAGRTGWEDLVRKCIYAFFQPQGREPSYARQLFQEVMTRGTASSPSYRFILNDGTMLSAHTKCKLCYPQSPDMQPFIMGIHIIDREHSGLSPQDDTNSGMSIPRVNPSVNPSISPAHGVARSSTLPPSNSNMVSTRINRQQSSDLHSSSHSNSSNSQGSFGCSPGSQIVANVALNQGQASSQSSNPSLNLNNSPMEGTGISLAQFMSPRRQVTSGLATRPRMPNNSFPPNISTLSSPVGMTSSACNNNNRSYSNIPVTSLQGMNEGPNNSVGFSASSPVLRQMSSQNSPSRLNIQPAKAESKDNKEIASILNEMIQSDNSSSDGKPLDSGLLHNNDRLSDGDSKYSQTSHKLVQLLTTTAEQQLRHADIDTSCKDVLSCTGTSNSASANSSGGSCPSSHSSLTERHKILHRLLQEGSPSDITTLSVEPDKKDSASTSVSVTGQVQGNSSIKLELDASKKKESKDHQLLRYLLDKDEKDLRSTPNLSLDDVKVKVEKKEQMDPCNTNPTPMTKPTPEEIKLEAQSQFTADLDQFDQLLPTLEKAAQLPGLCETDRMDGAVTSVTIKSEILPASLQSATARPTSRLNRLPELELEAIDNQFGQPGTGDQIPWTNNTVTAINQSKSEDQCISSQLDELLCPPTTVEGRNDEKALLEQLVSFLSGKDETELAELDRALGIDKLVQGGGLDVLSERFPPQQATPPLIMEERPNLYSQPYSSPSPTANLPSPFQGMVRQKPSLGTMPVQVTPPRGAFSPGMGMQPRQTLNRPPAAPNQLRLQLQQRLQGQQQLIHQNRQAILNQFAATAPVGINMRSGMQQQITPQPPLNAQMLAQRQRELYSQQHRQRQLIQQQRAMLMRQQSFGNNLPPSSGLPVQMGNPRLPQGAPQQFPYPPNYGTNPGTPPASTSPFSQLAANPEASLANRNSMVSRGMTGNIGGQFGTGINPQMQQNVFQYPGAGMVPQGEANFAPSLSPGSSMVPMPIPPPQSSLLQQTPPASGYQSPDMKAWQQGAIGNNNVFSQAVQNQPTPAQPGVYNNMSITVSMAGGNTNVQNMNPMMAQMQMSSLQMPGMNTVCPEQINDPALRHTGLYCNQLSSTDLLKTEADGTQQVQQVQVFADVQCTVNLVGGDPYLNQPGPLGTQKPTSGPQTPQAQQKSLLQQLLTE

[2] = biological target: Peroxisome proliferator-activated receptor gamma/Nuclear receptor coactivator 3 (Homo sapiens, UniProt P37231); test: as §1, with “3 (SRC-3)” for “1 (SRC-1)”, “assays: 1301 (Confirmation screen.), 1048 (Primary screen.)]” for “assays (depositor defined):AID1300, AID1808, AID504735, AID631]”; format: functional
Peroxisome proliferator-activated receptor gamma/Nuclear receptor coactivator 3, sequence (P37231 whole entry): as the sequence (P37231 whole entry) above
Peroxisome proliferator-activated receptor gamma/Nuclear receptor coactivator 3, sequence (Q9Y6Q9 whole entry, further chain): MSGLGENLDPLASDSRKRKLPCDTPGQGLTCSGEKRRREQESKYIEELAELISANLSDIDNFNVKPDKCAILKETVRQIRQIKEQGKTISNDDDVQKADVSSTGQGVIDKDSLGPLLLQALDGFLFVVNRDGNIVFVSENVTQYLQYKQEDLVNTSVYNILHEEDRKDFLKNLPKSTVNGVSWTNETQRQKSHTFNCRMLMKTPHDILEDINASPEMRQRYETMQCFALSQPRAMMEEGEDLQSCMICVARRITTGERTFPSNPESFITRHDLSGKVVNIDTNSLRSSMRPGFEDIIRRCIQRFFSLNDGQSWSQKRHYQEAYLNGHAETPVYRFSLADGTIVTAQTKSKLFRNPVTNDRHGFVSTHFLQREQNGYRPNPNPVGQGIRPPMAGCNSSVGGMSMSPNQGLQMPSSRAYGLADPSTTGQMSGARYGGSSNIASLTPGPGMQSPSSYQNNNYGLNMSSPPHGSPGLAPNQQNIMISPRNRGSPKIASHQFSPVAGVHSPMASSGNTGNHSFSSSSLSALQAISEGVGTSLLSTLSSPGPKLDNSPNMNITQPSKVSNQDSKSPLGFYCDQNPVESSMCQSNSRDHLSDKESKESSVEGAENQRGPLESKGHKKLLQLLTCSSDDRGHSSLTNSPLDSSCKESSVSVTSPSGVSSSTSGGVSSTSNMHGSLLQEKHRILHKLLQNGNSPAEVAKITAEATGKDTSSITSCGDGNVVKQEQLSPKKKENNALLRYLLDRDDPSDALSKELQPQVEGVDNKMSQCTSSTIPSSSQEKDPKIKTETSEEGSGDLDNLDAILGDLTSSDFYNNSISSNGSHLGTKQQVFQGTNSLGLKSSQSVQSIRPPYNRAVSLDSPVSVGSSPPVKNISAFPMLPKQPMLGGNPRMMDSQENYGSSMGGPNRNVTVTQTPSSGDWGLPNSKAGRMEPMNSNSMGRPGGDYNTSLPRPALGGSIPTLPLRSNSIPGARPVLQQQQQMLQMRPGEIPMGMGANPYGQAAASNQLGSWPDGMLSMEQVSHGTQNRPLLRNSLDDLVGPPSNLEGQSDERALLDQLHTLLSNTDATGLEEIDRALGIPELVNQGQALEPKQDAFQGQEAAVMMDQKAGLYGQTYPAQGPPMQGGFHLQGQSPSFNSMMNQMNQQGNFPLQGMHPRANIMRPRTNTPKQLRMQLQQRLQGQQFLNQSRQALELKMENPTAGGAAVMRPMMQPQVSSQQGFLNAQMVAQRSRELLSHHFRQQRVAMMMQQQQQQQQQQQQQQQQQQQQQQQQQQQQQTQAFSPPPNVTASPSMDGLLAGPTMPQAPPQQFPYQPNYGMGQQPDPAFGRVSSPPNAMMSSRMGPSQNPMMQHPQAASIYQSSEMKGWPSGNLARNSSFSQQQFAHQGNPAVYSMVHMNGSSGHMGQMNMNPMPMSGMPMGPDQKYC

[3] = biological target: Peroxisome proliferator-activated receptor gamma/Nuclear receptor coactivator 2 (Homo sapiens, UniProt P37231); test: TR-FRET dose response biochemical High Throughput Screening assay for agonists of the steroid receptor coactivator 2 (SRC-2) recruitment by the peroxisome proliferator-activated receptor gamma (PPAR gamma): non-selective agonists. [Related pubchem assays: 1297, 1032 ]; format: functional
[4] = biological target: G-protein coupled receptor 55 (Homo sapiens, UniProt Q9Y2T6); test: GPR55 agonists via beta-arrestin recruitment, primary screen, imaging, U2OS cells, beta-arrestin-GFP redistribution (AID 1961); format: functional
G-protein coupled receptor 55, sequence (Q9Y2T6 whole entry): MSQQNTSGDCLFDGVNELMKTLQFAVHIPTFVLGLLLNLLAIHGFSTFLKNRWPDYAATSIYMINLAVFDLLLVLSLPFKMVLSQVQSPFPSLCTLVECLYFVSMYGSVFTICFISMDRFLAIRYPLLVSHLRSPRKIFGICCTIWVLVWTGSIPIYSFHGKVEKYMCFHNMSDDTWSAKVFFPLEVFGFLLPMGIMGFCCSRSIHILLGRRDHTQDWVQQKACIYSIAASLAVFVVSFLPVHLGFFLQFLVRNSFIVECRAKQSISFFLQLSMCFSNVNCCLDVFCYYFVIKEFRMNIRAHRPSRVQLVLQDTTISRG

[5] = biological target: DNA dC->dU-editing enzyme APOBEC-3A (Homo sapiens, UniProt P31941); test: Dose Response confirmation of small molecule APOBEC3A DNA Deaminase Inhibitors via a fluorescence-based single-stranded DNA deaminase assay. [Related pubchem assays (depositor defined):AID493011, AID493024]; format: functional
[6] = biological target: DNA dC->dU-editing enzyme APOBEC-3G (Homo sapiens, UniProt Q9HC16); format: functional;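 also: Dose-response counterscreen measuring inhibition of APOBEC3G DNA deaminase activity, run while confirming APOBEC3A inhibitors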
DNA dC->dU-editing enzyme APOBEC-3G, sequence (Q9HC16 whole entry): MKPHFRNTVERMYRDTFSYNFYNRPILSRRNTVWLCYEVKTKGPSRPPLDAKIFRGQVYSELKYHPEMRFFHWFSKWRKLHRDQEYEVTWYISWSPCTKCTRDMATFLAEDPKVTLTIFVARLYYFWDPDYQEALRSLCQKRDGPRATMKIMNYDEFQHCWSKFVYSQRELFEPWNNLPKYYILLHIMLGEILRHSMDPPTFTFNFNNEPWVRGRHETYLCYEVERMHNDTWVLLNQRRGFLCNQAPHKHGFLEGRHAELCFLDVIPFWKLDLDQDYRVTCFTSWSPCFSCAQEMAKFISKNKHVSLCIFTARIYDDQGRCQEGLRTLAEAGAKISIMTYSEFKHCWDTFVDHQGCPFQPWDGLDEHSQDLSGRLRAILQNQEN

Cytochrome P450 2C9 = Cytochrome P450 2C9 (Homo sapiens, UniProt P11712); conditions: Potency
Cytochrome P450 2C9, sequence (P11712 whole entry): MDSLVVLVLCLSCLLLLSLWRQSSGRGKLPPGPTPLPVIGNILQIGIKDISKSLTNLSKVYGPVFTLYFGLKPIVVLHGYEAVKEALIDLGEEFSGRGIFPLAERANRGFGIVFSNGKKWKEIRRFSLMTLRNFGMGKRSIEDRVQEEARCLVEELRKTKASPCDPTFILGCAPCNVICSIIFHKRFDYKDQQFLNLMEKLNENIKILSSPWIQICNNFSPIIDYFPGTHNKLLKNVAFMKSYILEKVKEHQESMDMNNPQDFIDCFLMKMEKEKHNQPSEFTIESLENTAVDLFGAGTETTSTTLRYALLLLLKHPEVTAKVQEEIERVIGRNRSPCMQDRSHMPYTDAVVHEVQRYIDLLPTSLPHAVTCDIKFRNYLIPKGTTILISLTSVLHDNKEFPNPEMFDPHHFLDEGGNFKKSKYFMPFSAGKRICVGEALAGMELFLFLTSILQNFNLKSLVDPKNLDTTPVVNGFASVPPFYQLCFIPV

Estrogen receptor = biological target: T1, Estrogen receptor (Homo sapiens, UniProt P03372);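 also: potency for inhibiting coactivator peptide recruitment to the receptor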
T1 sequence (P03372 whole entry): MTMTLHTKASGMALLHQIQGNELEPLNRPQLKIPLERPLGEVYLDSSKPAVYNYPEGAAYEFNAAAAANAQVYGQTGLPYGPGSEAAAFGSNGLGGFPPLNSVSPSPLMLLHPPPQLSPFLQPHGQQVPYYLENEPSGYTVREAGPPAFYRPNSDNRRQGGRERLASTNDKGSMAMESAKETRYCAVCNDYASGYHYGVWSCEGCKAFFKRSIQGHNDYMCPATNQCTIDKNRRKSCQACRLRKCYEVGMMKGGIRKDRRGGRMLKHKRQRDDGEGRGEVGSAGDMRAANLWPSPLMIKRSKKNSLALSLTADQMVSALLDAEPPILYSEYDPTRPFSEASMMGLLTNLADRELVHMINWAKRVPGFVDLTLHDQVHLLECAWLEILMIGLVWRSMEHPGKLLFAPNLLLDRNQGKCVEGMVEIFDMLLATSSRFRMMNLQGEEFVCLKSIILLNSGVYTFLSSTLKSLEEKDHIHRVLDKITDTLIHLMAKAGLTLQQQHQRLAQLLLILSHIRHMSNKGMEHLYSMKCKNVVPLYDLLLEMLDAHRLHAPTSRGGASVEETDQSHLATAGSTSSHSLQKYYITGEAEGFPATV

Cytochrome P450 2D6 [7] = biological target: T2, Cytochrome P450 2D6 (Homo sapiens, UniProt P10635); test: qHTS Assay for Inhibitors and Substrates of Cytochrome P450 2D6. [Related pubchem assays: 410 ]; format: ADME; conditions: read-out: Potency
[8] = biological target: T3, Tyrosine-protein phosphatase non-receptor type 7 (Homo sapiens, UniProt P35236); test: redox-dependent HePTP inhibition, mechanism study, biochemical, fluorescence (AID 2068); format: functional
T3 sequence (P35236 whole entry): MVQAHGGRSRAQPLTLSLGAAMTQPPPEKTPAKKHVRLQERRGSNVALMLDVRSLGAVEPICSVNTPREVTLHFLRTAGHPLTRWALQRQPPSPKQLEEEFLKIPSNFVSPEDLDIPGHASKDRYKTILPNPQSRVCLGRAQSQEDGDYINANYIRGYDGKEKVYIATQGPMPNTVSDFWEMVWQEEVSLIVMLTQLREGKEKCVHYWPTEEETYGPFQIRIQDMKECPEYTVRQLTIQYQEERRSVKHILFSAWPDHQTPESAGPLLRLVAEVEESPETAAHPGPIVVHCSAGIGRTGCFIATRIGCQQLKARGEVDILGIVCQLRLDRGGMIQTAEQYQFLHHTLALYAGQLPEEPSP

[9] = biological target: T4, Dual specificity protein phosphatase 6 (Rattus norvegicus, UniProt Q64346); format: functional;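 also: confirmatory in vitro dose-response testing of MKP-3 inhibition; recombinant His-tagged MKP-3 made in E. coli BL21 with OMFP substrate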
T4 sequence (Q64346 whole entry): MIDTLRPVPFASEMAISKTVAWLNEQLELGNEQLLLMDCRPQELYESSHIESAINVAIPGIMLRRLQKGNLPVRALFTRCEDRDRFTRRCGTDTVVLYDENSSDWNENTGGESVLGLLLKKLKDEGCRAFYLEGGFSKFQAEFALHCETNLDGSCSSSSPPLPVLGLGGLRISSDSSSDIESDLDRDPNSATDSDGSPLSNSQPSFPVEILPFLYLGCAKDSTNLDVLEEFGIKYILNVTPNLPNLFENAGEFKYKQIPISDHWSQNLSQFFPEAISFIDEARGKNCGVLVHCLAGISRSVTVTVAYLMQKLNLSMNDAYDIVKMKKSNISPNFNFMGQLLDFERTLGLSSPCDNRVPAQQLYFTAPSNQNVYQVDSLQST

[10] = biological target: T5, Mannose-6-phosphate isomerase (Homo sapiens, UniProt P34949); test: human PMI inhibitors, high substrate, primary screen, biochemical, fluorescence intensity, high mannose 6-phosphate (AID 1220)
T5 sequence (P34949 whole entry): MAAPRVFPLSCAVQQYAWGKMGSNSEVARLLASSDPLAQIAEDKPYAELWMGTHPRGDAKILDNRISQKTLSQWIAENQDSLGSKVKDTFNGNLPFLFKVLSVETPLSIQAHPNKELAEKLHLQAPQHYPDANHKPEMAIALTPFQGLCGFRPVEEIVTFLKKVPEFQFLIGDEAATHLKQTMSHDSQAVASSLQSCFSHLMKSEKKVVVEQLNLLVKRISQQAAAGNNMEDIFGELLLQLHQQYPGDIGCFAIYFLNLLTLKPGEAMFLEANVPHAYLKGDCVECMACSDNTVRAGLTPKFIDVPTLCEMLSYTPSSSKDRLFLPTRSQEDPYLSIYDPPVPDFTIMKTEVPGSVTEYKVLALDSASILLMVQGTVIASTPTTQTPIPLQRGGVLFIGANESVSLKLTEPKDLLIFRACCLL

Cytochrome P450 2D6 [11] = biological target: T2, Cytochrome P450 2D6
Cytochrome P450 3A4 = Cytochrome P450 3A4 (Homo sapiens, UniProt P08684);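 also: CYP3A4 tested as one member of a cytochrome P450 panel screen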
CAAX prenyl protease 2 = biological target: T6, CAAX prenyl protease 2 (Saccharomyces cerevisiae S288c, UniProt Q03530); format: biochemical
T6 sequence (Q03530 whole entry): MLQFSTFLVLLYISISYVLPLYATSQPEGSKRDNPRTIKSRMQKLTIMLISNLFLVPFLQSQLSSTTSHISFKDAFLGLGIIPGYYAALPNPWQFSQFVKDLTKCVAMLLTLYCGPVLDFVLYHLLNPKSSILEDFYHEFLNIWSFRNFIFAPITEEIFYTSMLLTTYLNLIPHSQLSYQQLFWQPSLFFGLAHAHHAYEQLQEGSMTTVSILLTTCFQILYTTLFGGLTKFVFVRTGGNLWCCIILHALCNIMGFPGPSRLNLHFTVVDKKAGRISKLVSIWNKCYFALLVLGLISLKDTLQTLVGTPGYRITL

CCn1c(=O)cc(SCC(=O)NCC2CCCO2)c2ccccc21 (stereo not drawn)
EC50 [1]: > 79.4 µM (inactive)
EC50 [2]: > 79.4 µM (not active)
EC50 [3]: > 79.4 µM (not active)

COCc1nnc(NC(=O)CCSc2ccccc2)s1
EC50 [4]: > 32 µM (inactive)

C[N+](C)(C)CCCCCC(=O)C=NO
IC50 [5]: 5.54 µM (active)
IC50 [6]: 12.6 µM (active)

CC(C)C[C@@H](CC(=O)N[C@@H](CCC(=O)O)CC(=O)O)NC(=O)[C@@H]1CNCC[C@H]1NC(=O)C[C@@H](NC(=O)C[C@H](CO)NC(=O)[C@@H]1CNCC[C@H]1N)C(C)C
AC50 (Cytochrome P450 2C9): 6.31 µM (inconclusive)

Cc1ccc2c(c1)N(CC(=O)NC1CCCc3ccccc31)C(=O)CO2 (stereo not drawn)
IC50 (Estrogen receptor): > 50 µM (not active)

CCCC[n+]1c(C)sc2cc(OC)ccc21
IC50 [5]: 36 µM (active)
IC50 [6]: > 100 µM (inactive)

NCCC[C@@H](CC(=O)N[C@@H]1CCNC[C@H]1C(=O)N[C@H](CC(=O)N[C@@H](CCC(=O)O)CC(=O)O)Cc1c[nH]c2ccccc12)NC(=O)C[C@H](Cc1c[nH]c2ccccc12)NC(=O)[C@@H]1CNCC[C@H]1N
AC50 (Cytochrome P450 2D6 [7]): 39.8 µM (inconclusive)
AC50 (Cytochrome P450 2C9): 31.6 µM (inconclusive)

CCOCCCNC(=O)c1cnc2ccc(S(=O)(=O)Nc3cccc(OC)c3)cc2c1O
IC50 (Estrogen receptor): 35.2 µM (not active)

COc1cc(C(=S)NCc2ccc(C)cc2C)ccc1O
IC50 [8]: 1.64 µM (active)
IC50 [9]: > 100 µM (inactive)

COc1ccccc1C1=NN(C(S)=Nc2ccccc2)C(c2ccco2)C1 (stereo not drawn)
EC50 [1]: 19.7 µM (inactive)
EC50 [2]: > 79.4 µM (not active)
EC50 [3]: > 79.4 µM (not active)

O=C(NCCC1=CCCCC1)Nc1ccc2nc(-c3ccco3)c(-c3ccco3)nc2c1
IC50 [8]: 2.73 µM (active)

O=[N+]([O-])c1ccc2c(c1NC1CCCCC1)=NC1(CCCCC1)[N+]=2[O-]
IC50 [10]: > 50 µM (not active)
AC50 (Cytochrome P450 2D6 [11]): 14.1 µM (inconclusive)
AC50 (Cytochrome P450 3A4): 3.16 µM (inconclusive)

CC(=O)O[C@@H]1CC[C@]2(C)[C@H]3CC[C@]4(C)[C@H](C[C@H]5CCCC[C@@]54C(C)=O)[C@@H]3CC(=O)[C@@]2(O)C1
AC50 (Cytochrome P450 2C9): 25.1 µM (inconclusive)

COc1ccc(/C=C2\Sc3ccc(C(=O)NC4CC4)cc3N(C)C2=O)cc1OC
EC50 [4]: > 32 µM (inactive)

O=c1c(-c2ccccc2)c(O)c2ccccc2n1-c1ccccc1
AC50 (CAAX prenyl protease 2): 5.31 µM (active)

COc1cc(C(=S)NCc2ccc(O)cc2)ccc1O
IC50 [8]: 10.1 µM (active)
IC50 [9]: > 100 µM (inactive)

Cc1ccccc1NC(=S)Nc1cccc2cnccc12
IC50 [10]: > 50 µM (not active)
